Among the data in patent publication US9783552B2, “Soluble guanylate cyclase activators” (MERCK SHARP & DOHME CORP., priority 2013, dated 2017) are EC50 and Emax values, retold here.

The target of the test is T1, sGC α1/β1 heterodimer (Homo sapiens, UniProt Q02108+Q02153).
T1 construct: expressed in transfected cells
T1 sequence (Q02108 1-690): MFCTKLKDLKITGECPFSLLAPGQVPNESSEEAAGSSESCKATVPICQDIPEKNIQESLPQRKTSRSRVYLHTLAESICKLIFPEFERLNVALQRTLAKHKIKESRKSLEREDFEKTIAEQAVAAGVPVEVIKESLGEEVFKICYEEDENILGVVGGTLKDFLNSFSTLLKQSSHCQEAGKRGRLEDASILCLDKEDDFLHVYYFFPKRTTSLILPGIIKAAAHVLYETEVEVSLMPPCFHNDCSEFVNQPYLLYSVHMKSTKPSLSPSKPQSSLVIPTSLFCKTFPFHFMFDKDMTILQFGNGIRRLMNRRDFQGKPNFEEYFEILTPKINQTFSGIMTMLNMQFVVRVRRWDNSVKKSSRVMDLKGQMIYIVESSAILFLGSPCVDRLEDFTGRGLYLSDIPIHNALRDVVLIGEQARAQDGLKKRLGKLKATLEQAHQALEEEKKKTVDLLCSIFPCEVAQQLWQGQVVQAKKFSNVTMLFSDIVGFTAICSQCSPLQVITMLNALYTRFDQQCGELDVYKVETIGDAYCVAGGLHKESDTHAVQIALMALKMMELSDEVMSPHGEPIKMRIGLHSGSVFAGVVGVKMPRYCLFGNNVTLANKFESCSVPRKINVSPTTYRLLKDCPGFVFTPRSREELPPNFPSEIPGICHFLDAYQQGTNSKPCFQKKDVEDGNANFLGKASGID
T1 sequence (Q02153 1-619): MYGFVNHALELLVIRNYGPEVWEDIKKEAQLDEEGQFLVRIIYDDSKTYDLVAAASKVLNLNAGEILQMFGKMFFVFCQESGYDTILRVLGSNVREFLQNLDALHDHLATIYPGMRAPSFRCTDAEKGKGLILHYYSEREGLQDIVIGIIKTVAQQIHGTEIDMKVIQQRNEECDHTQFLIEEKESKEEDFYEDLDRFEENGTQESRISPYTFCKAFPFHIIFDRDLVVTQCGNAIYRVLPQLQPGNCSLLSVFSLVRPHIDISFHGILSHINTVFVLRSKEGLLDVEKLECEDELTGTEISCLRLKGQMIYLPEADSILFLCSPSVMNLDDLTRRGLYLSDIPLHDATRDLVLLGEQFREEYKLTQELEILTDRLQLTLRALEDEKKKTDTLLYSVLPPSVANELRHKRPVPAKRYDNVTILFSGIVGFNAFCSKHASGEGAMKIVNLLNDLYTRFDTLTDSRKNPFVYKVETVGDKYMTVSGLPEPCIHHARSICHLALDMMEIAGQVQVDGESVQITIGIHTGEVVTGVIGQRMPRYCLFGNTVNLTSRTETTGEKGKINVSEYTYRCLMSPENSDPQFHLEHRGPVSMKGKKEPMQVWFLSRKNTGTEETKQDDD
In words: Cell-Based sGC Functional Assay (CASA Assay). To be noted: CHO-K1/sGC cells; for EC50: intracellular cGMP by HTRF, 1 hr at 37° C., IP from 4P fit, presence or absence of 1 μM DETA-NO not given; for Emax: cGMP as percentage of maximum cGMP production of Compound A (=100% activation), read-out: % ACT (percent activation). From the text:
Biological Assays: Cell-Based sGC Functional Assay (CASA Assay)
sGC is a heme-containing enzyme that converts GTP to secondary messenger cGMP. Increases in cGMP levels affect several physiological processes including vasorelaxation through multiple downstream pathways. […] Heme-dependent activators (HDAs) preferentially activate sGC containing a ferrous heme group. To determine the effect of sGC activators on enzyme activity, the CASA assay was developed to monitor the generation of cGMP in a cell line that stably expresses the heterodimeric sGC protein.
A CHO-K1 cell line stably expressing the sGC α1/β1 heterodimer was generated using a standard transfection protocol. CHO-K1 cells were transfected with plasmids pIREShyghsGCα1 and pIRESneo-hsGCβ1 simultaneously using FUGENE reagent. Clones that stably express both subunits were selected with hygromycin and neomycin for ˜2 weeks. Clone #7 was chosen for the assay and was designated CHO-K1/sGC. CHO-K1/sGC cells were maintained in F-K12 medium containing 10% heat-inactivated Fetal Bovine Serum (FBS), 100 μg/mL penicillin/streptomycin, 0.5 mg/mL hygromycin and 0.25 mg/mL G418. The cells were then cryopreserved in LN2. On the day of the assay, cells were thawed and resuspended in EBSS Assay Buffer (EAB, Sigma, E3024) supplemented with 5 mM MgCl2, 10 mM HEPES (4-(2-hydroxyethyl)piperazine-1-ethanesulfonic acid) and 0.05% BSA (bovine serum albumin) and cell density was then adjusted to 4×10^5/mL with EAB. IBMX (3-isobutyl-1-methylxanthin, 0.5 mM) was added to inhibit degradation of cGMP. Compounds were diluted from DMSO stock solutions and added to the assay at a final DMSO concentration of 2.5%. Cells were incubated with compounds in the presence and absence of 1 μM of Diethylenetriamine/nitric oxide adduct (DETA-NO; Sigma, 17018) for 1 hr at 37° C. At the end of the incubation period, the reaction was terminated and the cells were lysed with the detection reagents from Cisbio Kits. The level of intracellular cGMP was determined using an HTRF-based assay kit (CisBio, 62GM2PEC), which detects the displacement of a fluorescence labeled cGMP from its specific antibody. The cGMP produced by test compounds was directly compared to the maximum cGMP production (this value was set to equal 100% activation) of the published sGC-HDA Compound A:
[drawing 123] (Example 1 in WO 2010/065275, published Jun. 10, 2010). The test compounds' activity was then expressed as a percentage of Compound A, the standard in every experiment. This percent activation was calculated either in the presence or absence of DETA-NO which was then plotted. IP and maximum fold induction was derived using ADA analysis software for 4P fit.
(Time-resolved FRET reads energy transfer from a long-lived donor to a nearby acceptor.)

As for `C#CC1(C)C(=O)Nc2nc(-c3nc(CCC(F)(F)C(F)(F)F)nc4c3cnn4C)nc(N)c21` (single isomer, unassigned) [Example 21, 4-Amino-5-ethynyl-5-methyl-2-(1-methyl-6-(3,3,4,4,4-pentafluorobutyl)-1H-pyrazolo[3,4-d]pyrimidin-4-yl)-5H-pyrrolo[2,3-d]pyrimidin-6(7H)-one], the midpoint of the response, the EC50, lay at 92 nM and the Emax was 106%.
Taken in the same sequence, the figures for `[2H]C([2H])([2H])n1ncc2c(-c3nc(N)c4c(n3)NC(=O)C4(C)C#C)nc(CCC(F)(F)C(F)(F)F)nc21` (single isomer, unassigned) [Example 22, 4-Amino-5-ethynyl-5-methyl-2-(6-(3,3,4,4,4-pentafluorobutyl)-1-trideuteriomethyl-1H-pyrazolo[3,4-d]pyrimidin-4-yl)-5H-pyrrolo[2,3-d]pyrimidin-6(7H)-one] were 46 nM and 128%.
Taken in the same sequence, the figures for `C#CC1(CC)C(=O)Nc2nc(-c3nc(CCC(F)(F)C(F)(F)F)nc4c3cnn4C)nc(N)c21` (single isomer, unassigned) [Example 23, 4-Amino-5-ethyl-5-ethynyl-2-(1-methyl-6-(3,3,4,4,4-pentafluorobutyl)-1H-pyrazolo[3,4-d]pyrimidin-4-yl)-5H-pyrrolo[2,3-d]pyrimidin-6(7H)-one] were 49 nM and 106%.
Consider `C#CC1(C2CC2)C(=O)Nc2nc(-c3nc(CCC(F)(F)C(F)(F)F)nc4c3cnn4C)nc(N)c21` (single isomer, unassigned) [Example 24, 4-Amino-5-cyclopropyl-5-ethynyl-2-(1-methyl-6-(3,3,4,4,4-pentafluorobutyl)-1H-pyrazolo[3,4-d]pyrimidin-4-yl)-5H-pyrrolo[2,3-d]pyrimidin-6(7H)-one], for which the half-maximal effective concentration (EC50) was 105 nM and the Emax is 120%.
Taken in the same sequence, the figures for `[2H]C([2H])([2H])n1ncc2c(-c3nc(N)c4c(n3)NC(=O)C4(CCCC)C3CC3)nc(CCC(F)(F)C(F)(F)F)nc21` (single isomer, unassigned) [Example 25, 4-Amino-5-butyl-5-cyclopropyl-2-(6-(3,3,4,4,4-pentafluorobutyl)-1-trideuteriomethyl-1H-pyrazolo[3,4-d]pyrimidin-4-yl)-5H-pyrrolo[2,3-d]pyrimidin-6(7H)-one] were 49 nM and 80%.
The like results for `CCOC(=O)C1(C2CC2)C(=O)Nc2nc(-c3nc(CCC(F)(F)C(F)(F)F)nc4c3cnn4C)nc(N)c21` (single isomer, unassigned) [Example 26, Ethyl 4-amino-5-cyclopropyl-2-(1-methyl-6-(3,3,4,4,4-pentafluorobutyl)-1H-pyrazolo[3,4-d]pyrimidin-4-yl)-6-oxo-6,7-dihydro-5H-pyrrolo[2,3-d]pyrimidine-5-carboxylate] were, in that order, 830 nM and 93%.
`CCOC(=O)C1(C2CC2)C(=O)Nc2nc(-c3nc(CCCC(F)(F)F)nc4c3cnn4C)nc(N)c21` (single isomer, unassigned) [Example 27, Ethyl 4-amino-5-cyclopropyl-2-(1-methyl-6-(4,4,4-trifluorobutyl)-1H-pyrazolo[3,4-d]pyrimidin-4-yl)-6-oxo-6,7-dihydro-5H-pyrrolo[2,3-d]pyrimidine-5-carboxylate]: a half-maximal effect (EC50) was put at 602 nM and the Emax was 98%.
`[2H]C([2H])([2H])n1ncc2c(-c3nc(N)c4c(n3)NC(=O)C4(C(=O)NCC)C3CC3)nc(CCC(F)(F)C(F)(F)F)nc21` (single isomer, unassigned) [Example 29, 4-Amino-5-cyclopropyl-N-ethyl-2-(6-(3,3,4,4,4-pentafluorobutyl)-1-trideuteriomethyl-1H-pyrazolo[3,4-d]pyrimidin-4-yl)-6-oxo-6,7-dihydro-5H-pyrrolo[2,3-d]pyrimidine-5-carboxamide]: the 50% effective concentration (EC50) came to 135 nM and the Emax stood at 131%.
With `Cn1ncc2c(-c3nc(N)c4c(n3)NC(=O)C4(C)C(N)=O)nc(CCC(F)(F)C(F)(F)F)nc21` (single isomer, unassigned) [Example 30, 4-Amino-5-methyl-2-(1-methyl-6-(3,3,4,4,4-pentafluorobutyl)-1H-pyrazolo[3,4-d]pyrimidin-4-yl)-6-oxo-6,7-dihydro-5H-pyrrolo[2,3-d]pyrimidine-5-carboxamide], the response was half-maximal at 245 nM (EC50) and the Emax was 84%.
Taken in the same sequence, the figures for `Cn1ncc2c(-c3nc(N)c4c(n3)NC(=O)C4(C(=O)NC3CC3)C3CC3)nc(CCC(F)(F)C(F)(F)F)nc21` (single isomer, unassigned) [Example 33, 4-Amino-N,5-dicyclopropyl-2-(1-methyl-6-(3,3,4,4,4-pentafluorobutyl)-1H-pyrazolo[3,4-d]pyrimidin-4-yl)-6-oxo-6,7-dihydro-5H-pyrrolo[2,3-d]pyrimidine-5-carboxamide] were 53 nM and 112%.
The like results for `[2H]C([2H])([2H])n1ncc2c(-c3nc(N)c4c(n3)NC(=O)C4(CC)C(=O)NC3CC3)nc(CCC(F)(F)C(F)(F)F)nc21` (single isomer, unassigned) [Example 34, 4-Amino-N-cyclopropyl-5-ethyl-2-(6-(3,3,4,4,4-pentafluorobutyl)-1-trideuteriomethyl-1H-pyrazolo[3,4-d]pyrimidin-4-yl)-6-oxo-6,7-dihydro-5H-pyrrolo[2,3-d]pyrimidine-5-carboxamide] were, in that order, 143 nM and 122%.
The like results for `[2H]C([2H])([2H])n1ncc2c(-c3nc(N)c4c(n3)NC(=O)C4(C(=O)NC3CC3)C(C)C)nc(CCC(F)(F)C(F)(F)F)nc21` (single isomer, unassigned) [Example 35, 4-Amino-N-cyclopropyl-5-isopropyl-2-(6-(3,3,4,4,4-pentafluorobutyl)-1-trideuteriomethyl-1H-pyrazolo[3,4-d]pyrimidin-4-yl)-6-oxo-6,7-dihydro-5N-pyrrolo[2,3-d]pyrimidine-5-carboxamide] were, in that order, 62 nM and 107%.

By EC50 is commonly meant the concentration at which the effect is half-maximal. Higher therefore signals lower potency in that assay.
